Results as given in the NIST ThermoML archive (doi:10.1016/j.jct.2017.05.001).
± gives the expanded uncertainty stated by the source.

Experiment: wn = mass fraction of the nth substance listed
Settings: 333.15 K, Liquid; for viscosity: Falling or rolling sphere viscometry; for mass density: Vibrating tube method

## OCCN(CCO)CCO [triethanolamine] + O
5000 kPa, w1 = 0.2991
  viscosity: 1.154 ± 0.038 mPa·s
  mass density: 1028.3 ± 0.7 kg/m3
5000 kPa, w1 = 0.4
  viscosity: 1.68 ± 0.055 mPa·s
  mass density: 1045.1 ± 0.7 kg/m3
5000 kPa, w1 = 0.0992
  mass density: 999.3 ± 0.7 kg/m3
5000 kPa, w1 = 0.2
  mass density: 1013.6 ± 0.7 kg/m3
10000 kPa, w1 = 0.0992
  viscosity: 0.6149 ± 0.02 mPa·s
  mass density: 1001.4 ± 0.7 kg/m3
10000 kPa, w1 = 0.2
  viscosity: 0.8125 ± 0.027 mPa·s
  mass density: 1015.7 ± 0.7 kg/m3
10000 kPa, w1 = 0.2991
  viscosity: 1.164 ± 0.038 mPa·s
  mass density: 1030.4 ± 0.7 kg/m3
10000 kPa, w1 = 0.4
  viscosity: 1.698 ± 0.056 mPa·s
  mass density: 1047.1 ± 0.7 kg/m3
15000 kPa, w1 = 0.0992
  viscosity: 0.6154 ± 0.02 mPa·s
  mass density: 1003.5 ± 0.7 kg/m3
15000 kPa, w1 = 0.2
  viscosity: 0.8177 ± 0.027 mPa·s
  mass density: 1017.7 ± 0.7 kg/m3
15000 kPa, w1 = 0.2991
  viscosity: 1.168 ± 0.038 mPa·s
  mass density: 1032.4 ± 0.7 kg/m3
15000 kPa, w1 = 0.4
  viscosity: 1.704 ± 0.056 mPa·s
  mass density: 1049 ± 0.7 kg/m3
20000 kPa, w1 = 0.0992
  viscosity: 0.6178 ± 0.02 mPa·s
  mass density: 1005.5 ± 0.7 kg/m3
20000 kPa, w1 = 0.2
  viscosity: 0.82 ± 0.027 mPa·s
  mass density: 1019.7 ± 0.7 kg/m3
20000 kPa, w1 = 0.2991
  viscosity: 1.178 ± 0.039 mPa·s
  mass density: 1034.3 ± 0.7 kg/m3
20000 kPa, w1 = 0.4
  viscosity: 1.72 ± 0.057 mPa·s
  mass density: 1050.9 ± 0.7 kg/m3
25000 kPa, w1 = 0.0992
  viscosity: 0.6198 ± 0.02 mPa·s
25000 kPa, w1 = 0.2
  viscosity: 0.8238 ± 0.027 mPa·s
25000 kPa, w1 = 0.2991
  viscosity: 1.181 ± 0.039 mPa·s
25000 kPa, w1 = 0.4
  viscosity: 1.738 ± 0.057 mPa·s
30000 kPa, w1 = 0.0992
  viscosity: 0.6221 ± 0.02 mPa·s
  mass density: 1009.6 ± 0.7 kg/m3
30000 kPa, w1 = 0.2
  viscosity: 0.8283 ± 0.027 mPa·s
  mass density: 1023.6 ± 0.7 kg/m3
30000 kPa, w1 = 0.2991
  viscosity: 1.189 ± 0.039 mPa·s
  mass density: 1038.2 ± 0.7 kg/m3
30000 kPa, w1 = 0.4
  viscosity: 1.748 ± 0.058 mPa·s
  mass density: 1054.7 ± 0.7 kg/m3
40000 kPa, w1 = 0.0992
  viscosity: 0.625 ± 0.021 mPa·s
  mass density: 1013.6 ± 0.7 kg/m3
40000 kPa, w1 = 0.2
  viscosity: 0.8329 ± 0.027 mPa·s
  mass density: 1027.7 ± 0.7 kg/m3
40000 kPa, w1 = 0.2991
  viscosity: 1.203 ± 0.04 mPa·s
  mass density: 1042.1 ± 0.7 kg/m3
40000 kPa, w1 = 0.4
  viscosity: 1.771 ± 0.058 mPa·s
  mass density: 1058.4 ± 0.7 kg/m3
50000 kPa, w1 = 0.0992
  mass density: 1017.5 ± 0.7 kg/m3
50000 kPa, w1 = 0.2
  mass density: 1031.4 ± 0.7 kg/m3
50000 kPa, w1 = 0.2991
  mass density: 1045.7 ± 0.7 kg/m3
50000 kPa, w1 = 0.4
  mass density: 1062 ± 0.7 kg/m3
60000 kPa, w1 = 0.0992
  viscosity: 0.6327 ± 0.021 mPa·s
  mass density: 1021.3 ± 0.7 kg/m3
60000 kPa, w1 = 0.2
  viscosity: 0.8473 ± 0.028 mPa·s
  mass density: 1035 ± 0.7 kg/m3
60000 kPa, w1 = 0.2991
  viscosity: 1.225 ± 0.04 mPa·s
  mass density: 1049.4 ± 0.7 kg/m3
60000 kPa, w1 = 0.4
  viscosity: 1.826 ± 0.06 mPa·s
  mass density: 1065.6 ± 0.7 kg/m3
70000 kPa, w1 = 0.0992
  mass density: 1024.8 ± 0.7 kg/m3
70000 kPa, w1 = 0.2
  mass density: 1038.6 ± 0.7 kg/m3
70000 kPa, w1 = 0.2991
  mass density: 1052.9 ± 0.7 kg/m3
70000 kPa, w1 = 0.4
  mass density: 1069 ± 0.8 kg/m3
80000 kPa, w1 = 0.0992
  viscosity: 0.6418 ± 0.021 mPa·s
  mass density: 1028.6 ± 0.7 kg/m3
80000 kPa, w1 = 0.2
  viscosity: 0.8631 ± 0.028 mPa·s
  mass density: 1042.1 ± 0.7 kg/m3
80000 kPa, w1 = 0.2991
  viscosity: 1.253 ± 0.041 mPa·s
  mass density: 1056.3 ± 0.7 kg/m3
80000 kPa, w1 = 0.4
  viscosity: 1.878 ± 0.062 mPa·s
  mass density: 1072.3 ± 0.8 kg/m3
90000 kPa, w1 = 0.0992
  mass density: 1032 ± 0.7 kg/m3
90000 kPa, w1 = 0.2
  mass density: 1045.6 ± 0.7 kg/m3
90000 kPa, w1 = 0.2991
  mass density: 1059.7 ± 0.8 kg/m3
90000 kPa, w1 = 0.4
  mass density: 1075.5 ± 0.8 kg/m3
100000 kPa, w1 = 0.0992
  viscosity: 0.6513 ± 0.021 mPa·s
  mass density: 1035.6 ± 0.7 kg/m3
100000 kPa, w1 = 0.2
  viscosity: 0.8789 ± 0.029 mPa·s
  mass density: 1049.1 ± 0.7 kg/m3
100000 kPa, w1 = 0.2991
  viscosity: 1.293 ± 0.043 mPa·s
  mass density: 1063.2 ± 0.8 kg/m3
100000 kPa, w1 = 0.4
  viscosity: 1.964 ± 0.065 mPa·s
  mass density: 1078.9 ± 0.8 kg/m3
110000 kPa, w1 = 0.0992
  mass density: 1039 ± 0.7 kg/m3
110000 kPa, w1 = 0.2
  mass density: 1052.3 ± 0.8 kg/m3
110000 kPa, w1 = 0.2991
  mass density: 1066.3 ± 0.8 kg/m3
110000 kPa, w1 = 0.4
  mass density: 1082 ± 0.8 kg/m3
120000 kPa, w1 = 0.0992
  mass density: 1042.5 ± 0.7 kg/m3
120000 kPa, w1 = 0.2
  mass density: 1055.8 ± 0.8 kg/m3
120000 kPa, w1 = 0.2991
  mass density: 1069.8 ± 0.8 kg/m3
120000 kPa, w1 = 0.4
  mass density: 1085.3 ± 0.8 kg/m3
